Test [1] addresses T1, AaSiaP (TRAP N-acetylneuraminate substrate-binding protein SiaP) (Aggregatibacter actinomycetemcomitans, UniProt A0A5D0EK58). Nature of the test: microscale thermophoresis; also crystal structure ([…] A), DSF, SAXS. Details: gene ACT75_01630; mature chain without native signal peptide (replaced by pelB), residual N-terminal Met-Asp; strain 624, WP_005538762.1. (In MST a laser heats a spot of the sample, and binding alters the fluorescence response.)

Test [2] deals with T1, AaSiaP (TRAP N-acetylneuraminate substrate-binding protein SiaP). Nature of the test: microscale thermophoresis. Also noted: gene ACT75_01630; mature chain without native signal peptide (replaced by pelB), residual N-terminal Met-Asp; strain 624, WP_005538762.1.
For test [3] the target is unchanged. Also noted: gene ACT75_01630.

T1 sequence (A0A5D0EK58 entry or part of it): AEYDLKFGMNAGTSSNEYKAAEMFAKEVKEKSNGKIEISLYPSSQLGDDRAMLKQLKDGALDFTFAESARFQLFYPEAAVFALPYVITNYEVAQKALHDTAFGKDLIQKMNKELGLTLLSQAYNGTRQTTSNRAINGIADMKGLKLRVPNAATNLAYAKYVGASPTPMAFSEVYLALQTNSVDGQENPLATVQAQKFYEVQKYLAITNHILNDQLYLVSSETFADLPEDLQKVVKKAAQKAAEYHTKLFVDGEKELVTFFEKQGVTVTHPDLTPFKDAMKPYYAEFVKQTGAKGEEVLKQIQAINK

Broadly, the Kd is the concentration at which binding is half-saturated. Regarding `CC(=O)N[C@H]1[C@H]([C@H](O)[C@H](O)CO)O[C@](O)(C(=O)O)C[C@@H]1O` [Neu5Ac, N-acetylneuraminate], in test [1], the affinity, expressed as Kd, was 0.43 µM. In the case of `O=C(CO)N[C@H]1[C@H]([C@H](O)[C@H](O)CO)O[C@@](O)(C(=O)O)C[C@@H]1O` [Neu5Gc, N-glycolylneuraminate], the Kd in test [2] was found to be 4.4 µM. This counts as single-digit micromolar. With `CC(=O)O` [acetate], the “crystal structure (2.58 A, chains A and B); acetate from the crystallization cond” value in test [3] is “Acetate makes favorable interactions with residues R127, R147, and N189 on domain II within the binding site of AaSiaP”.

For the origin of these results see article PMC11550005, “On the function of TRAP substrate-binding proteins: Conformational variation of the sialic acid binding protein SiaP” (The Journal of Biological Chemistry, 2024).
